From ChEMBL document CHEMBL2440076, “New triarylpyrazoles as broad-spectrum anticancer agents: design, synthesis, and biological evaluation” (Eur J Med Chem, 2013)

Key:
Assay type in all cases: functional
A498 = test: Growth inhibition of human A498 cells assessed as cell growth at 3X10'-6 M after 48 hrs by sulforhodamine B assay; conditions: A498, 48 h, read-out: Activity
K562 [1] = test: Growth inhibition of human K562 cells assessed as cell growth at 3X10'-9 M after 48 hrs by sulforhodamine B assay; conditions: K562, 48 h, read-out: Activity
NCI-H460 [2] = test: Growth inhibition of human NCI-H460 cells assessed as cell growth at 3X10'-8 M after 48 hrs by sulforhodamine B assay; conditions: NCI-H460, 48 h, read-out: Activity
[3] = Growth inhibition of human NCI-ADR-RES cells assessed as cell growth at 3X10'-6 M after 48 hrs by sulforhodamine B assay; conditions: read-out: Activity
MDA-MB-435 = test: Growth inhibition of human MDA-MB-435 cells assessed as cell growth at 3X10'-6 M after 48 hrs by sulforhodamine B assay; conditions: MDA-MB-435, 48 h, read-out: Activity
M14 = test: Growth inhibition of human M14 cells assessed as cell growth at 3X10'-6 M after 48 hrs by sulforhodamine B assay; conditions: M14, 48 h, read-out: Activity
SK-MEL-28 = test: Growth inhibition of human SK-MEL-28 cells assessed as cell growth at 3X10'-5 M after 48 hrs by sulforhodamine B assay; conditions: SK-MEL-28, 48 h, read-out: Activity
NCI-H322M = test: Growth inhibition of human NCI-H322M cells assessed as cell growth at 3X10'-9 M after 48 hrs by sulforhodamine B assay; conditions: read-out: Activity
COLO 205 [4] = test: Growth inhibition of human COLO205 cells assessed as cell growth at 3X10'-9 M after 48 hrs by sulforhodamine B assay; conditions: COLO 205, 48 h, read-out: Activity
OVCAR-5 = test: Growth inhibition of human OVCAR5 cells assessed as cell growth at 3X10'-9 M after 48 hrs by sulforhodamine B assay; conditions: OVCAR-5, 48 h, read-out: Activity
HCT-15 [5] = test: Growth inhibition of human HCT15 cells assessed as cell growth at 3X10'-6 M after 48 hrs by sulforhodamine B assay; conditions: HCT-15, 48 h, read-out: Activity
786-0 = test: Growth inhibition of human 786-0 cells assessed as cell growth at 3X10'-5 M after 48 hrs by sulforhodamine B assay; conditions: 786-0, 48 h, read-out: Activity
A549 [6] = test: Growth inhibition of human A549/ATCC cells assessed as cell growth at 3X10'-8 M after 48 hrs by sulforhodamine B assay; conditions: A549, 48 h, read-out: Activity
[7] = Growth inhibition of human HCC2998 cells assessed as cell growth at 3X10'-7 M after 48 hrs by sulforhodamine B assay; conditions: HCC 2998, 48 h, read-out: Activity
NCI-H522 = test: Growth inhibition of human NCI-H522 cells assessed as cell growth at 3X10'-9 M after 48 hrs by sulforhodamine B assay; conditions: NCI-H522, 48 h, read-out: Activity
SF-539 = test: Growth inhibition of human SF539 cells assessed as cell growth at 3X10'-8 M after 48 hrs by sulforhodamine B assay; conditions: SF-539, 48 h, read-out: Activity
NCI-H460 [8] = test: Growth inhibition of human NCI-H460 cells assessed as cell growth at 3X10'-9 M after 48 hrs by sulforhodamine B assay; conditions: NCI-H460, 48 h, read-out: Activity
[9] = Growth inhibition of human Hs 578T cells assessed as cell growth at 3X10'-7 M after 48 hrs by sulforhodamine B assay; conditions: read-out: Activity
MDA-MB-231 = test: Growth inhibition of human MDA-MB-231 cells assessed as cell growth at 3X10'-7 M after 48 hrs by sulforhodamine B assay; conditions: MDA-MB-231, 48 h, read-out: Activity
LOX IMVI = test: Growth inhibition of human LOXIMVI cells assessed as cell growth at 3X10'-9 M after 48 hrs by sulforhodamine B assay; conditions: read-out: Activity
A549 [10] = test: Growth inhibition of human A549/ATCC cells assessed as cell growth at 3X10'-6 M after 48 hrs by sulforhodamine B assay; conditions: A549, 48 h, read-out: Activity
SK-MEL-5 = test: Growth inhibition of human SK-MEL-5 cells assessed as cell growth at 3X10'-7 M after 48 hrs by sulforhodamine B assay; conditions: SK-MEL-5, 48 h, read-out: Activity
U-251 = test: Growth inhibition of human U251 cells assessed as cell growth at 3X10'-9 M after 48 hrs by sulforhodamine B assay; conditions: U-251, 48 h, read-out: Activity
K562 [11] = test: Growth inhibition of human K562 cells assessed as cell growth at 3X10'-5 M after 48 hrs by sulforhodamine B assay; conditions: K562, 48 h, read-out: Activity
NCI-H460 [12] = test: Growth inhibition of human NCI-H460 cells assessed as cell growth at 3X10'-5 M after 48 hrs by sulforhodamine B assay; conditions: NCI-H460, 48 h, read-out: Activity
NCI-H23 = test: Growth inhibition of human NCI-H23 cells assessed as cell growth at 3X10'-6 M after 48 hrs by sulforhodamine B assay; conditions: NCI-H23, 48 h, read-out: Activity
IGROV-1 = test: Growth inhibition of human IGROV1 cells assessed as cell growth at 3X10'-5 M after 48 hrs by sulforhodamine B assay; conditions: IGROV-1, 48 h, read-out: Activity
SNB-75 = test: Growth inhibition of human SNB75 cells assessed as cell growth at 3X10'-9 M after 48 hrs by sulforhodamine B assay; conditions: SNB-75, 48 h, read-out: Activity
PC-3 = test: Growth inhibition of human PC3 cells assessed as cell growth at 3X10'-7 M after 48 hrs by sulforhodamine B assay; conditions: PC-3, 48 h, read-out: Activity
SNB-19 = test: Growth inhibition of human SNB19 cells assessed as cell growth at 3X10'-5 M after 48 hrs by sulforhodamine B assay; conditions: SNB-19, 48 h, read-out: Activity
SF-295 = test: Growth inhibition of human SF295 cells assessed as cell growth at 3X10'-8 M after 48 hrs by sulforhodamine B assay; conditions: SF-295, 48 h, read-out: Activity
SF-268 = test: Growth inhibition of human SF268 cells assessed as cell growth at 3X10'-9 M after 48 hrs by sulforhodamine B assay; conditions: SF-268, 48 h, read-out: Activity
SN12C = test: Growth inhibition of human SN12C cells assessed as cell growth at 3X10'-5 M after 48 hrs by sulforhodamine B assay; conditions: read-out: Activity
HCT-15 [13] = test: Growth inhibition of human HCT15 cells assessed as cell growth at 3X10'-8 M after 48 hrs by sulforhodamine B assay; conditions: HCT-15, 48 h, read-out: Activity
COLO 205 [14] = test: Growth inhibition of human COLO205 cells assessed as cell growth at 3X10'-7 M after 48 hrs by sulforhodamine B assay; conditions: COLO 205, 48 h, read-out: Activity

Row | Compound | growth at 3 µM (A498) [%] | growth at 0.003 µM (K562 [1]) [%] | growth at 0.03 µM (NCI-H460 [2]) [%] | growth at 3 µM [3] [%] | growth at 3 µM (MDA-MB-435) [%] | growth at 3 µM (M14) [%] | growth at 30 µM (SK-MEL-28) [%] | growth at 0.003 µM (NCI-H322M) [%] | growth at 0.003 µM (COLO 205 [4]) [%] | growth at 0.003 µM (OVCAR-5) [%] | growth at 3 µM (HCT-15 [5]) [%] | growth at 30 µM (786-0) [%] | growth at 0.03 µM (A549 [6]) [%] | growth at 0.3 µM [7] [%] | growth at 0.003 µM (NCI-H522) [%] | growth at 0.03 µM (SF-539) [%] | growth at 0.003 µM (NCI-H460 [8]) [%] | growth at 0.3 µM [9] [%] | growth at 0.3 µM (MDA-MB-231) [%] | growth at 0.003 µM (LOX IMVI) [%] | also measured
1 | O=C(Nc1cccc(-n2cc(-c3ccncc3)c(-c3ccc(Cl)c(O)c3)n2)c1)Nc1ccc(Cl)c(C(F)(F)F)c1 | 24 | 99 | 100 | -7 | -31 | -7 | -87 | 97 | 105 | 93 | 4 | 1 | 94 | 95 | 96 | 94 | 103 | 76 | 69 | 100 | growth at 3 µM (A549 [10]): 7%; growth at 0.3 µM (SK-MEL-5): 89%; growth at 0.003 µM (U-251): 98%; growth at 30 µM (K562 [11]): 1%; growth at 30 µM (NCI-H460 [12]): -41%; growth at 3 µM (NCI-H23): 1%; growth at 30 µM (IGROV-1): -47%; growth at 0.003 µM (SNB-75): 93%; growth at 0.3 µM (PC-3): 73%; growth at 30 µM (SNB-19): -42%; growth at 0.03 µM (SF-295): 92%; growth at 0.003 µM (SF-268): 101%; growth at 30 µM (SN12C): -6%; growth at 0.03 µM (HCT-15 [13]): 95%; growth at 0.3 µM (COLO 205 [14]): 101%
2 | O=C(Nc1cccc(-n2cc(-c3ccncc3)c(-c3ccc(Cl)c(O)c3)n2)c1)Nc1cccc(C(F)(F)F)c1 | 44 | 94 | 101 | 39 | 26 | 21 | 3 | 95 | 101 | 95 | 27 | 7 | 100 | 106 | 95 | 100 | 99 | 89 | 95 | 97 | growth at 3 µM (A549 [10]): 24%; growth at 0.3 µM (SK-MEL-5): 99%; growth at 0.003 µM (U-251): 100%; growth at 30 µM (K562 [11]): 6%; growth at 30 µM (NCI-H460 [12]): -1%; growth at 3 µM (NCI-H23): 36%; growth at 30 µM (IGROV-1): 3%; growth at 0.003 µM (SNB-75): 91%; growth at 0.3 µM (PC-3): 82%; growth at 30 µM (SNB-19): 20%; growth at 0.03 µM (SF-295): 99%; growth at 0.003 µM (SF-268): 95%; growth at 30 µM (SN12C): 16%; growth at 0.03 µM (HCT-15 [13]): 100%; growth at 0.3 µM (COLO 205 [14]): 109%
